System: melanoma cell line A375
Test: In vitro anticancer efficacy of the released DOX (MTT and Live/Dead assay)
Type: cell-based, human
Conditions: A375 cells, microneedles incubated 1 h
Procedure: A human melanoma cell line A375 was used as the model to investigate the anticancer efficiency of DOX released from the microneedles 14. After incubating microneedles 14 containing 10 μg of DOX with the plated cells for 1 h, the viability of A375 cells was examined using an MTT assay after 24 h. […] The DOX-induced cell death was further investigated by a Live/Dead assay, where live cells metabolized calcein AM into the green fluorescent calcein, and dead cells with compromised membrane integrity were stained by the red fluorescent dye EthD-1. […] The possible reason was that microneedles 14 with more crosslinking time would release less DOX at the same releasing time (1 h).
In vitro anticancer efficacy of the released DOX: In vitro cytotoxicity of the released DOX was evaluated using the melanoma cell line A375 as the model. Specifically, A375 cells were plated in 24-well plates (1×10^6 per well) and incubated for 24 h. Microneedles 14 with different crosslinking degrees were added and incubated for 1 h. After that, the microneedles 14 were removed from the wells, and A375 cells were incubated for another 24 h. The effects of DOX on the metabolic activity of A375 cells in vitro were tested with a rapid colorimetric MTT assay. The absorbance of the wells was read at 570 nm with 630 nm as the reference. […]

Compound: COc1cccc2c1C(=O)c1c(O)c3c(c(O)c1C2=O)C[C@@](O)(C(=O)CO)C[C@@H]3O[C@H]1C[C@H](N)[C@H](O)[C@H](C)O1 [DOX, doxorubicin]
- cell death (Live/Dead assay): cell death was observed
